Assays:
CDK6/Cyclin D1 = CDK6/Cyclin D1 (Homo sapiens (Human), UniProt Q00534); assay: CDK6/CyclinD1 enzymatic activity assay (TR-FRET); format: biochemical; settings: CDK6/Cyclin D1 1 nM, ATP 250 μM, read-out: CDK6_D1 IC50
Procedure: CDK6/CyclinD1 Enzymatic Activity Assay
(§1) The inhibitory activity of compounds was evaluated in vitro using TR-FRET assay with white 384-well low volume microplate (Greiner Bio-One). CDK6/Cyclin D1 catalyzed phosphorylation of peptide in the presence and absence of compounds was measured and used in IC50 determination. Recombinant protein complex CDK6/Cyclin D1, expressed from insect cell, was purchased from ProQinase. Testing compounds were dissolved in DMSO at 0.1 mM and tested in 9-dose IC50 mode. The reaction mixture was prepared by mixing CDK6/Cyclin D1 (1 nM final), ULight-4E-BP1 (100 nM final, Perkinelmer, TRF0128-D), and ATP (250 μM final) in assay buffer (20 mM of HEPES pH 7.4, 1 mM of EGTA, 0.05% BSA, 0.005% Tween 20, and 1 mM TCEP). The compound of interest in DMSO was added to each well in 3-fold serial dilution by dispenser (TECAN D300E). After 20 minutes preincubation at room temperature, 0.1 μL MgCl2 (10 mM final) was added to initiate the reaction. Following a 60 minutes incubation at 37° C., the reaction was stopped by addition of 2 μL of quenching buffer consisting of Lance detection buffer (Perkinelmer CR97-100C), 2 nM LANCE Ultra Europium-anti-P-4E-BP1 (Perkinelmer, TRF0216-D), 10 mM EDTA, and incubate at room temperature for additional 60 minutes in dark. The reaction signal was measured by Envision multimode plate reader (PerkinElmer, 2102-0010). IC50 values were determined by fitting the data to the standard 4 parameters with Hill Slope using GraphPad Prism software.

CDK4/Cyclin D1 = CDK4/Cyclin D1 (Homo sapiens (Human), UniProt P11802); assay: CDK4/CyclinD1 enzymatic activity assay (TR-FRET); format: biochemical; settings: CDK4/CyclinD1 1 nM, ATP 2 mM, read-out: CDK4_D1 IC50
Chain of CDK4/Cyclin D1 (P11802 whole entry): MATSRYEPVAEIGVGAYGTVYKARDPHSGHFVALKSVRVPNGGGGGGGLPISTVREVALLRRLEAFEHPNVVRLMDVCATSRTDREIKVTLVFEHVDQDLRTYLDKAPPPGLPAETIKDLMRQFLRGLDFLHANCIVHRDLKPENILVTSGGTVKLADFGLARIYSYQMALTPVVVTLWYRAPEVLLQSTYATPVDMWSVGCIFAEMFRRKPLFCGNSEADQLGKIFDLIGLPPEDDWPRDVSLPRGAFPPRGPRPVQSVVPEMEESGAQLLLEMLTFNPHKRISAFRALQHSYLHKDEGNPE
Chain of CDK4/Cyclin D1 (P24385 whole entry partner): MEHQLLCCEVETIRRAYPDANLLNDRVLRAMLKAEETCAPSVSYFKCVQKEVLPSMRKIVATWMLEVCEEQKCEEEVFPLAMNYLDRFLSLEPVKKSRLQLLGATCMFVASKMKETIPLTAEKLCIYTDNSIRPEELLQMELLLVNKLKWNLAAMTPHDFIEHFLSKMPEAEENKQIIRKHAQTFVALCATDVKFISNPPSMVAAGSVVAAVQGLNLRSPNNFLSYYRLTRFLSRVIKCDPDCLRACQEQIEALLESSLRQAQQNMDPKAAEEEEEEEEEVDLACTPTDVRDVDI
Procedure: CDK4/CyclinD1 Enzymatic Activity Assay
as §1, with “Bio-One). CDK4/Cyclin” for “Bio-One). CDK6/Cyclin”, “was measured.” for “was measured and used in”, “complex CDK4/Cyclin” for “complex CDK6/Cyclin”, “mixing CDK4/CyclinD1” for “mixing CDK6/Cyclin D1”, “ATP (2 mM” for “ATP (250 μM”, “temperature,” for “temperature, 0.1 μL”

[1] = tested on: MCF7 adenocarcinoma cell line; assay: Cell proliferation studies in MCF7 cells (ATP-Lite); format: cell-based; settings: Homo sapiens, 240 h, 10 days incubation, cell viability by ATP-Lite luminescence, read-out: PROLIFERATION_CTG_MCF7 IC50
Procedure: Cell Proliferation Studies in MCF7 Cells
Cell proliferation studies were conducted in MCF7 adenocarcinoma cell line. Cells were maintained in DMEM (Corning, Catalog #: 10-013-CV) supplemented with 10% v/v FBS (Gibco, Catalog #: 26140-079), 1% v/v Penicillin Streptomycin (Gibco, Catalog #15140-122) Cells were seeded in 384-well plates at a density of 100 or 200 cells/well. Compounds dissolved in DMSO were plated in quadruplicate using a digital dispenser (D300E, Tecan) and tested on a 9-point 3-fold serial dilution. Cells were incubated for 10 days in a 37° C. active humidified incubator at 5% CO2. A media exchange and second compound addition were performed on day 5. Cell viability was measured using the ATP-Lite 1-Step Luminescence reagent (Perkin Elmer, Catalog #: 6016731) as per manufacturer's instructions. Luminescence signal was measured with a multimode plate reader (Envision 2105, Perkin Elmer). Raw data files were imported to Dotmatics Screening Ultra for IC50 analysis. Luminescence values were normalized to both background and DMSO controls to obtain a percentage of viable cells relative to DMSO vehicle control.

Chain of CDK6/Cyclin D1 (Q00534 whole entry): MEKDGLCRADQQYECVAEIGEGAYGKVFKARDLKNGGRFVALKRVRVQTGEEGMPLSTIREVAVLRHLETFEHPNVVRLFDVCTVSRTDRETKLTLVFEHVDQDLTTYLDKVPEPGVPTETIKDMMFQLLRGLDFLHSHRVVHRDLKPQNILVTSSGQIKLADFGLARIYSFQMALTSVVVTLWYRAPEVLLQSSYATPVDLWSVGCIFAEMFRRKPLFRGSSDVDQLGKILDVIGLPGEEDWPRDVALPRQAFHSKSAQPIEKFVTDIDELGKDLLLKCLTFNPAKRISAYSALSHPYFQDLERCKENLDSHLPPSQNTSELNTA
Chain of CDK6/Cyclin D1 (P24385 whole entry partner): as the sequence (P24385 whole entry partner) above

Row | SMILES | IC50 (CDK6/Cyclin D1) [nM] | IC50 (CDK4/Cyclin D1) [nM] | IC50 [1] [nM]
1 | Cc1c(-c2nc(Nc3ccc(N4CCC5(CCN(C)C5)C4)cn3)ncc2F)sc2c1C(=O)N(C)CC21CC1 (stereo not drawn) [Example 37, 2′-(5-Fluoro-2-((5-(7-methyl-2,7-diazaspiro[4.4]nonan-2-yl)pyridin-2-yl)amino)pyrimidin-4-yl)-3′,5′-dimethyl-5′,6′-dihydro-4′H-spiro[cyclopropane-1,7′-thieno[3,2-c]pyridin]-4′-one] | ≤ 20 | ≤ 20 | 20 to 200
2 | CN1CCC(c2ccc(Nc3nc(-c4cc5c(s4)C4(CC4)CN(C)C5=O)ncc3C(F)(F)F)nc2)CC1 [Example 40, 5-Methyl-2-[4-[[5-(1-methylpiperidin-4-yl)pyridin-2-yl]amino]-5-(trifluoromethyl)pyrimidin-2-yl]spiro[6H-thieno[3,2-c]pyridine-7,1′-cyclopropane]-4-one] | ≤ 20 | ≤ 20 | ≤ 20
3 | Cc1cnc(Nc2ccc(N3CCC4(CC3)CN(C)C4)cn2)nc1-c1cc2c(s1)C1(CC1)CN(C)C2=O [Example 43, 5-methyl-2-[5-Methyl-2-[[5-(2-methyl-2,7-diazaspiro[3.5]nonan-7-yl)pyridin-2-yl]amino]pyrimidin-4-yl]spiro[6H-thieno[3,2-c]pyridine-7,1′-cyclopropane]-4-one] | ≤ 20 | ≤ 20 | 20 to 200
4 | CCN1CC2(C1)CN(c1ccc(Nc3ncc(Cl)c(-c4cc5c(s4)C4(CC4)CN(C)C5=O)n3)nc1)C2 [Example 45, 2-[5-Chloro-2-[[5-(6-ethyl-2,6-diazaspiro[3.3]heptan-2-yl)pyridin-2-yl]amino]pyrimidin-4-yl]-5-methylspiro[6H-thieno[3,2-c]pyridine-7,1′-cyclopropane]-4-one] | ≤ 20 | ≤ 20 | ≤ 20
5 | CN1CC2(CCC2)c2sc(-c3nc(Nc4ccc(N5CC6CC(C5)N6C)cn4)ncc3F)cc2C1=O [Example 46, 2′-(5-Fluoro-2-((5-(6-methyl-3,6-diazabicyclo[3.1.1]heptan-3-yl)pyridin-2-yl)amino)pyrimidin-4-yl)-5′-methyl-5′,6′-dihydro-4′H-spiro[cyclobutane-1,7′-thieno[3,2-c]pyridin]-4′-one] | 20 to 200 | ≤ 20 | 20 to 200
6 | CCN1CC2(C1)CN(c1ccc(Nc3ncc(F)c(-c4sc5c(c4C)C(=O)N(C)CC54CCC4)n3)nc1)C2 [Example 52, 2′-(2-((5-(6-Ethyl-2,6-diazaspiro[3.3]heptan-2-yl)pyridin-2-yl)amino)-5-fluoropyrimidin-4-yl)-3′,5′-dimethyl-5′,6′-dihydro-4′H-spiro[cyclobutane-1,7′-thieno[3,2-c]pyridin]-4′-one] | ≤ 20 | ≤ 20 | 20 to 200
7 | CN1CC2(CCC2)c2sc(-c3nc(Nc4ccc(N5CCN6CCC5CC6)cn4)ncc3F)cc2C1=O [Example 53, 2′-(2-((5-(1,4-Diazabicyclo[3.2.2]nonan-4-yl)pyridin-2-yl)amino)-5-fluoropyrimidin-4-yl)-5′-methyl-5′,6′-dihydro-4′H-spiro[cyclobutane-1,7′-thieno[3,2-c]pyridin]-4′-one] | 20 to 200 | ≤ 20 | 20 to 200
8 | Cc1c(-c2nc(Nc3ccc(N4CC5(CCN(C)C5)C4)cn3)ncc2F)sc2c1C(=O)N(C)CC21CCC1 [Example 54, 2′-(5-Fluoro-2-((5-(6-methyl-2,6-diazaspiro[3.4]octan-2-yl)pyridin-2-yl)amino)pyrimidin-4-yl)-3′,5′-dimethyl-5′,6′-dihydro-4′H-spiro[cyclobutane-1,7′-thieno[3,2-c]pyridin]-4′-one] | ≤ 20 | ≤ 20 | 20 to 200

From US20250163074A1, “CDK Inhibitors And Their Use As Pharmaceuticals” (Prelude Therapeutics Incorporated, priority 2020, published 2025)
